Measurements reported in paper PMC3760305, “Mimicking Protein–Protein Interactions through Peptide–Peptide Interactions: HIV-1 gp120 and CXCR4” (Frontiers in Immunology, 2013).
pKd: −log10 of the molar value. “Also recorded” adds a separate entry of the source.

Legend:
gp120HxBc2 [1] = target: T1, gp120HxBc2 (Human immunodeficiency virus type 1 group M subtype B, UniProt P04578); experiment: SPR: binding of gp120 to captured CX4-M1; set-up: species or system HIV-1
T1 construct: gp120MN, gp120ADA, and gp120HxBc2 from Immune Technology; purchased Immune Technology
Description: (§2) All measurements were performed using a Biacore X100 instrument in conjunction with the Biotin CAPture Kit (both from GE Healthcare). Sensor chip CAP was hybridized with a 1:10 dilution of CAPture reagent (streptavidin conjugate) in running buffer. […] For dehybridization, a regeneration solution of 6 M guanidinium chloride and 250 mM sodium hydroxide was used. HBS-N buffer (10 mM HEPES, 150 mM sodium chloride, pH 7.4) containing 0.05% Tween 20, as well as 100 mM (V3 loop peptides) or 2.5 mM (gp120) magnesium chloride, was used as running buffer. Measurement and data evaluation was performed using Biacore X100 Control Software (Version 2.0) and Biacore X100 Evaluation Software (Version 2.0), respectively.

gp120MN = target: T2, gp120MN (Human immunodeficiency virus type 1 group M subtype B, UniProt P05877); experiment: SPR: binding of gp120 to captured CX4-M1; set-up: species or system HIV-1
T2 construct: gp120MN, gp120ADA, and gp120HxBc2 from Immune Technology; purchased Immune Technology
Description: as §2

gp120HxBc2 [2] = target: T1, gp120HxBc2; type: binding, HIV-1; conditions: direct ELISA; variants 2.5 μM; gp120 8.3 nM in the presence of sCD4; relative to CX4-M1
Description: (§1) High binding microtiter plates (Immulon 2HB) were coated overnight at 4°C with streptavidin (4 μg/mL) in 0.1 M sodium carbonate buffer pH 9.5. Unspecific binding was blocked with 1% BSA in 0.1 M phosphate buffer pH 7.2, 200 μL/well for 1 h. All following steps were performed using 0.1 M phosphate buffer pH 7.2 containing 1% BSA (ELISA with V3 loop peptides) and 0.1% BSA (ELISA with gp120), respectively, as well as 0.01% Tween 20. Plates were incubated with 100 μL CX4-M1 variants (0.5 μM for binding to V3 loop peptides, 2.5 μM for binding to gp120), or biotin alone as a blank, for 2 h. Plates were then incubated for 3 h with fluoresceinylated V3 loop peptides (250 or 100 nM), or gp120 (8.3 nM, either with or without 8.3 nM sCD4). V3 loop peptides were detected using 100 μL/well mouse anti-fluorescein-HRP conjugate from antibodies online (3 μg/mL) for 1 h. Gp120 was detected using a two antibody system. Sheep anti-gp120 (D7324) from Aalto Bio Reagents (0.2 μg/mL) was added for 1 h, followed by a 1 h incubation with rabbit anti-sheep-HRP conjugate from Dianova (3 μg/mL), 100 μL/well. Plates were washed four times with 0.01% Tween 20 in 0.1 M phosphate buffer pH 7.2 (300 μL/well) after each incubation step. Plates were developed with 100 μL/well OPD (1 mg/mL) in the presence of 0.03% H2O2 for approximately 1.5 min (V3 loop peptide detection), or 3.5 min (gp120 detection) in the dark. After the reaction was stopped with 50 μL/well 2 M H2SO4, absorbances were read at 492 nm and corrected for the blank (sample with biotin instead of CX4-M1). All data points present means of at least duplicates.

V3 loop peptide V3HxBc2 = experiment: Direct ELISA: CX4-M1 variants binding to V3 loop peptide; set-up: species or system HIV-1; conditions: variants 0.5 μM, fluoresceinylated V3HxBc2, relative to CX4-M1
Description: as §1

[3] = target: T3, CXCR4 mimetic peptide CX4-M1 (Homo sapiens, UniProt P61073); experiment: Direct ELISA: fluoresceinylated V3 loop peptides binding to CX4-M1; conditions: for effect of alanine substitution in V3HxBc2 on binding to CX4-M1: direct ELISA, relative to V3HxBc2; for binding of V3 loop peptide to CX4-M1 (direct ELISA): CX4-M1 0.5 μM on streptavidin plate, fluoresceinylated V3 loop peptides 250 or 100 nM, 3 h, absorbance 492 nm
Description: as §1

[4] = target: T3, CXCR4 mimetic peptide CX4-M1; experiment: SPR: binding of V3 loop peptides to captured CX4-M1; conditions: SPR Biacore X100; CX4-M1 (2 μM) bound to streptavidin; V3 loop peptides 5–0.3 μM; HBS-N pH 7.4, 0.05% Tween 20, 100 mM MgCl2
Description: as §2

Compound: CC[C@H](C)[C@@H]1NC(=O)[C@H](Cc2ccc(O)cc2)NC(=O)[C@H](CCCNC(=N)N)NC(=O)[C@H](CC(=O)O)NC(=O)CCCCCNC(=O)CCNC(=O)CCCCCNC(=O)[C@H](CCCCN)NC(=O)[C@@H](NC(=O)[C@H](CC(C)C)NC(=O)[C@H](Cc2ccccc2)NC(=O)[C@H](CC(N)=O)NC(=O)CNC(=O)[C@H](Cc2ccccc2)NC(=O)[C@H](Cc2ccc(O)cc2)NC(=O)[C@H](Cc2c[nH]c3ccccc23)NC(=O)[C@H](CC(N)=O)NC(=O)[C@H](C)NC(=O)[C@@H](NC(=O)[C@H](C)NC(=O)[C@H](CC(=O)O)NC(C)=O)C(C)C)CSSC[C@@H](C(=O)N[C@@H](CC(=O)O)C(=O)N[C@@H](CCCNC(=N)N)C(=O)N[C@@H](Cc2ccccc2)C(=O)N[C@@H](Cc2ccc(O)cc2)C(=O)N2CCC[C@H]2C(=O)N[C@@H](CC(N)=O)C(=O)N[C@@H](CC(=O)O)C(=O)N[C@@H](CC(C)C)C(=O)N[C@@H](Cc2c[nH]c3ccccc23)C(=O)N[C@H](C(=O)NCCCCCC(=O)NCCC(=O)NCCCCCC(=O)N[C@@H](CC(=O)O)C(=O)N[C@@H](CO)C(=O)N[C@@H](Cc2ccccc2)C(=O)N[C@H](C(=O)N[C@@H](CC(C)C)C(=O)N[C@@H](CC(C)C)C(=O)N[C@@H](CCC(=O)O)C(=O)N[C@H](C(=O)N[C@H](C(=O)N[C@@H](CCCCN)C(=O)N[C@@H](CCC(N)=O)C(=O)NCC(=O)N[C@@H](CO)C(=O)N[C@@H](CCC(=O)O)C(=O)N[C@@H](Cc2ccccc2)C(=O)N[C@@H](CCC(=O)O)C(=O)N[C@@H](CC(N)=O)C(=O)N[C@H](C(=O)N[C@H](C(=O)N[C@@H](Cc2c[nH]cn2)C(=O)N[C@@H](CCCCN)C(=O)NCCCCCC(=O)N[C@@H](CCCCNC(=O)CCCC[C@@H]2SC[C@@H]3NC(=O)N[C@@H]32)C(N)=O)C(C)C)[C@@H](C)O)[C@@H](C)CC)[C@@H](C)CC)[C@@H](C)CC)C(C)C)NC1=O [CX4-M1]
- pKd (gp120HxBc2 [1]): 6.70
- pKd (gp120MN): 6.15

Compound: Ac-ECL1-X-B-X-DRAICDRFYPNDLWV-X-B-X-ECL3-X-K(Bio)-NH2 (disulfide) [CX4-M1 Y184A, alanine substitution variant of ECL2 of CX4-M1]
- effect of alanine substitution in ECL2 of CX4-M1 on binding to gp120HxBc2 (gp120HxBc2 [2]): attenuated binding
- effect of alanine substitution in ECL2 of CX4-M1 on binding to V3HxBc2 (V3 loop peptide V3HxBc2): enhancement of binding

Compound: Ac-ECL1-X-B-X-DRYICDRFAPNDLWV-X-B-X-ECL3-X-K(Bio)-NH2 (disulfide) [CX4-M1 Y190A, alanine substitution variant of ECL2 of CX4-M1]
- effect of alanine substitution in ECL2 of CX4-M1 on binding to gp120HxBc2 (gp120HxBc2 [2]): attenuated binding
- effect of alanine substitution in ECL2 of CX4-M1 on binding to V3HxBc2 (V3 loop peptide V3HxBc2): enhancement of binding

Compound: Ac-ECL1-X-B-X-DRYICDRFYPNDAWV-X-B-X-ECL3-X-K(Bio)-NH2 (disulfide) [CX4-M1 L194A, alanine substitution variant of ECL2 of CX4-M1]
- effect of alanine substitution in ECL2 of CX4-M1 on binding to gp120HxBc2 (gp120HxBc2 [2]): negative effect on the affinity; also recorded: attenuated binding
- effect of alanine substitution in ECL2 of CX4-M1 on binding to V3HxBc2 (V3 loop peptide V3HxBc2): enhancement of binding

Compound: Ac-ECL1-X-B-X-DRYICDRFYPNDLWA-X-B-X-ECL3-X-K(Bio)-NH2 (disulfide) [CX4-M1 V196A, alanine substitution variant of ECL2 of CX4-M1]
- effect of alanine substitution in ECL2 of CX4-M1 on binding to V3HxBc2 (V3 loop peptide V3HxBc2): enhancement of binding

Compound: Fluo-X-G-X-CTRPNNNTRKRARIQRGPGRAFVTIGKIGNMRQAHC-NH2 (disulfide) [V3HxBc2 I307A, alanine scan variant of V3HxBc2]
- effect of alanine substitution in V3HxBc2 on binding to CX4-M1 [3]: strongly diminished binding

Compound: Fluo-X-G-X-CTRPNNNTRKRIAIQRGPGRAFVTIGKIGNMRQAHC-NH2 (disulfide) [V3HxBc2 R308A, alanine scan variant of V3HxBc2]
- effect of alanine substitution in V3HxBc2 on binding to CX4-M1 [3]: strongly diminished binding

Compound: Fluo-X-G-X-CTRPNNNTRKRIRAQRGPGRAFVTIGKIGNMRQAHC-NH2 (disulfide) [V3HxBc2 I309A, alanine scan variant of V3HxBc2]
- effect of alanine substitution in V3HxBc2 on binding to CX4-M1 [3]: strongly diminished binding

Compound: Fluo-X-G-X-CTRPNNNTRKRIRIQRGPGRAAVTIGKIGNMRQAHC-NH2 (disulfide) [V3HxBc2 F317A, alanine scan variant of V3HxBc2]
- effect of alanine substitution in V3HxBc2 on binding to CX4-M1 [3]: strongly diminished binding

Compound: Fluo-X-G-X-CTRPNNNTRKRIRIQRGPGRAFATIGKIGNMRQAHC-NH2 (disulfide) [V3HxBc2 V318A, alanine scan variant of V3HxBc2]
- effect of alanine substitution in V3HxBc2 on binding to CX4-M1 [3]: strongly diminished binding

Compound: Fluo-X-G-X-CTRPNNNTRKRIRIQRGPGRAFVTAGKIGNMRQAHC-NH2 (disulfide) [V3HxBc2 I320A, alanine scan variant of V3HxBc2]
- effect of alanine substitution in V3HxBc2 on binding to CX4-M1 [3]: strongly diminished binding

Compound: Fluo-X-G-X-CTRPNNNTRKSIHI–GPGRAFYTTGEIIGDIRQAHC-NH2 (disulfide) [Peptide V3ADA, fluoresceinylated peptide presenting the V3 loop of gp120 from R5-tropic HIV-1 ADA]
- KD (V3 loop peptide) to CX4-M1 [4]: No binding

Compound: Fluo-X-G-X-CTRPNNNTRK––QRGPGRA–-GKIGNMRQAHC–NH2 (disulfide) [V3HxBc2 Δbeta]
- binding of V3 loop peptide to CX4-M1 (direct ELISA) [3]: complete loss of binding

Compound: Fluo-X-G-X––––-C^dRIRIQRGPGRAFVTIC^d–––––-NH2 (disulfide) [V3HxBc2 turn/beta, truncated variant of V3HxBc2 presenting the turn region and the two beta strands]
- binding of V3 loop peptide to CX4-M1 (direct ELISA) [3]: retained some of the affinity

Compound: Fluo-X-G-X––––––-C^dQRGPGRAC^d–––––––-NH2 (disulfide) [V3HxBc2 turn, truncated variant of V3HxBc2 presenting only the turn region]
- binding of V3 loop peptide to CX4-M1 (direct ELISA) [3]: complete loss of binding

Compound: Yc-X-G-X-CTRPNNNTRKSIHI–GPGRALYTTGEIIGDIRQAHC-NH2 (disulfide) [Peptide V3BAL, fluoresceinylated peptide presenting the V3 loop of gp120 from R5-tropic HIV-1 BAL]
- KD (V3 loop peptide) to CX4-M1 [4]: No binding
